According to patent US7781565B2 (priority 2006, dated 2010):
“Also recorded” adds a separate entry of the source.

System: NCI-60 cell lines
Assay type: cell-based, human

Substance | Cell Line (NCI-60 cell line the peptide and its motif are associated with) | Cell Line with which the peptide (and its tripeptide motif) is associated | Cell Line the peptide is associated with (peptide recovered from phage library selection on this NCI-60 cell line) | Cell Line (NCI-60 cell line the peptide is associated with)
DGLVPVA | IGROV1 Ovarian | – | – | –
INWAGLS | – | Hop-92-Lung | – | –
SDVSGSS | – | H322-Lung | – | –
GSVLHVS | – | – | HS 578 T Breast | –
DAGSDRR | – | EKVX-Lung | – | –
PGAVLTV | – | – | – | COLO-205-Colon
AAVWAAD | – | HL-60-Leukemia | – | –
AGLQHAV | – | – | – | HCT-15 Colon
SGIGSGG | – | Hop-92-Lung | – | –
RGAVREM | – | – | SN12C Renal | –
PSLLRGF | UACC62 Melanoma | – | – | –
ARGGESA | SK-OV-3-3 Ovarian | – | – | –
FEGGRSG | M14 Melanoma | – | – | –
RGRVLLP | M14 Melanoma | – | – | –
IYGGLVI | SK-MEL-5 Melanoma | – | – | –
WGAGFWM | – | H460-Lung | – | –
AEDSGGR | – | – | BT-549 Breast | –
VAASESH | – | Hop-62-Lung | – | –
GGPGLVM | OVCAR-4 Ovarian | – | – | –
PLLRQQL | – | – | ACHN Renal | –
YVGLVVS | – | SR Leukemia | – | –
TGRSSFW | – | – | TK-10 Renal | –

Substance | Cell Line (NCI-60 cell line the peptide and its motif are associated with) | Cell Line with which the peptide (and its tripeptide motif) is associated | Cell Line the peptide is associated with (peptide recovered from phage library selection on this NCI-60 cell line) | Cell Line (NCI-60 cell line the peptide is associated with)
TRVSGSG | – | – | BT-549 Breast | –
RAAGSAG | IGROV1 Ovarian | – | – | –
GVAGLRW | – | – | – | SW620-Colon
SRVSFHE | – | – | – | MALME-3M Melanoma
AGRHLDA | – | – | HS 578 T Breast | –
TGFGAVG | – | HL-60-Leukemia | – | –
LLRPGTV | – | – | – | HCC-2998-Colon
LSLRGGL | – | – | MDA-MB-231 Breast | –
IAMAGLR | SK-MEL-2 Melanoma | – | – | –
SSVASLV | – | – | – | SNB-19 CNS; also recorded: SF-539 CNS
VRSSGVL | SK-OV-3-3 Ovarian | – | – | –
LRAVEFL | – | – | – | MALME-3M Melanoma
PAILRVR | – | – | UO31 Renal | –
GRVPGFE | – | H322-Lung | – | –
GSSHDAL | – | – | – | SNB-19 CNS; also recorded: SF-539 CNS
GGSRNRW | – | H226-Lung | – | –
WSISGSV | – | – | MDA-MB-231 Breast | –
FGGSMAP | SK-MEL-2 Melanoma | – | – | –
SLVSERA | – | – | HS 578 T Breast | –
LRPGLRS | – | – | CAIK-1 Renal | –
RGSVRVL | – | HL-60-Leukemia | – | –
GEGRLCG | – | – | CAIK-1 Renal | –

Substance | Cell Line (NCI-60 cell line the peptide and its motif are associated with) | Cell Line with which the peptide (and its tripeptide motif) is associated | Cell Line the peptide is associated with (peptide recovered from phage library selection on this NCI-60 cell line) | Cell Line (NCI-60 cell line the peptide is associated with)
LVSGYNG | – | Hop-92-Lung | – | –
SRAVIDM | – | CCRF-CEM Leukemia | – | –
AGLEDLG | – | – | RXF393 Renal | –
FAAGAGS | 786-0 Renal | – | – | –
LLNPARG | – | – | SN12C Renal | –
LRVDQLY | UACC62 Melanoma | – | – | –
FRASLQY | – | Hop-62-Lung | – | –
KMRIAGR | – | – | SN12C Renal | –
RASRIGL | – | – | TK-10 Renal | –
RRARGAC | – | – | – | SNB-75 CNS
VLFSAGS | – | K-562-Leukemia | – | –
MITRGRL | – | – | – | HCT-15 Colon
VAWRGVS | – | A549-Lung | – | –
GGLSECV | – | H226-Lung | – | –
GLGSCAP | – | – | RXF393 Renal | –
IGVRGFF | – | Molt-4-Leukemia | – | –
RDGAVNL | UACC 257 Melanoma | – | – | –
VSSTARG | – | – | – | MALME-3M Melanoma
FTLRVDK | – | K-562-Leukemia | – | –
FSNARGY | DU-145 Prostate | – | – | –
SIGPSTN | – | H460-Lung | – | –
